{
  "source": "patent US20060281700A1",
  "about": "“SYNERGISTIC MODULATION OF FLT3 KINASE USING AMINOPYRIMIDINES KINASE MODULATORS” (priority 2005, published 2006)",
  "key": {"MV4-11 AML cells": {"test_system": "MV4-11 AML cells", "test": "Cell proliferation assay, single agents and FTI/FLT3 inhibitor combinations, MV4-11", "type": "cell-based, human", "quoted_text": "Using this method inhibitors are added simultaneously to cells in a ratio of the IC50 dose of each compound alone. The data is collected and subject to isobolar analysis of fixed ratio dose combinations as described by Chou and Talalay. This analysis is used to generate a combination index or CI. The CI value of 1 corresponds to compounds that behave additively; CI values <0.9 are considered synergistic and CI values of >1.1 are considered antagonistic. Using this method, multiple FTI and FLT3 combinations were evaluated. […] Using the isobologram, synergy can be graphically represented. Data points for combinations that are additive lie along the isobolar line at a given dose affect (CI=1). Data points for combinations that are synergistic fall to the left, or under, the isobolar line for a given dose effect (CI<0.9). Data points for combinations that are antagonistic fall to the right, or over, the isobolar line for a given dose effect (CI>1.1).\nInhibition data was analyzed using Calcsyn (BioSoft, Ferguson, Mo.) and the combination index (C.I.) calculated. C.I. values <0.9 are considered synergistic."}, "MV4-11 cells": {"test_system": "MV4-11 cells", "test": "Annexin V Staining (apoptosis)", "type": "cell-based, human", "conditions": "MV4-11, 48 hours, fixed ratio 4:1 Tipifarnib and Compound A", "text": "The ultimate goal of treatment for FLT3 related disorders is to kill the disease causative cells and to cause regression of disease. […] Annexin V binding to phosphotidyl serine that has translocated from the inner leaflet of the plasma membrane to the outer leaflet of the plasma membrane and is a well established way to measure apoptosis of cells. See van Engeland M., L. J. Nieland, et al. (1998) “Annexin V-affinity assay: a review on an apoptosis detection system based on phosphatidylserine exposure.” Cytometry. 31(1):1-9.\nAfter the compound incubations, treated cells were harvested and stained with Annexin V-PE and 7-AAD using the Guava Nexin apoptosis kit according to the protocol in the Biological Activity Measurements section hereafter. Annexin V staining peaks at 60% because cells late in apoptosis begin to fall apart and are considered debris. […] Statistical analysis using the above described method of Chou and Talalay was also performed to determine the synergy of the combination. […] The magnitude of the synergistic induction of apoptosis of MV4-11 cells by the combination of an FTI and a FLT3 inhibitor could not be predicted by those skilled in the art. […]\nAnnexin V Staining. […] All annexin positive cells were considered apoptotic and percent Annexin positive cells was calculated."}, "MV4-11 tumor xenografts": {"test_system": "MV4-11 tumor xenografts", "test": "MV4-11 human tumor xenograft regression model in nude mice", "type": "in vivo", "protocol": "Female athymic nude mice (CD-1, nu/nu, 9-10 weeks old) were obtained from Charles River Laboratories (Wilmington, Mass.) and were maintained according to NIH standards. All mice were group housed (5 mice/cage) under clean-room conditions in sterile micro-isolator cages on a 12-hour light/dark cycle in a room maintained at 21-22° C. and 40-50% humidity. Mice were fed irradiated standard rodent diet and water ad libitum. All animals were housed in a Laboratory Animal Medicine facility that is fully accredited by the American Association for Assessment and Accreditation of Laboratory Animal Care (AAALAC). […]\nThe time course of the inhibitory effects of FLT3 inhibitor compounds on the growth of MV4-11 tumors is illustrated in FIG. 1. […] Percent inhibition (% I) of tumor growth was calculated versus tumor growth in the vehicle-treated Control group on the last study day. Statistical significance versus Control was determined by Analysis of Variance (ANOVA) followed by Dunnett's t-test: *p<0.05; **p<0.01.\n(See FIG. 2). […] Percent Inhibition was calculated versus the mean tumor weight in the vehicle-treated control group. Statistical significance versus Control was determined by ANOVA followed by Dunnett's t-test: **p<0.01. […]"}},
  "data": [
    {"smiles": "Cn1cncc1C(N)(c1ccc(Cl)cc1)c1ccc2c(c1)c(-c1cccc(Cl)c1)cc(=O)n2C", "note": "(single isomer, unassigned; (+)) [Tipifarnib, (+)-6-[amino(4-chlorophenyl)(1-methyl-1H-imidazol-5-yl)methyl]-4-(3-chlorophenyl)-1-methyl-2(1H)-quinolinone]", "values": [
      {"measurement": "IC50", "setting": "MV4-11 AML cells; Homo sapiens, MV4-11 proliferation, FTI alone or in the combination named", "value": 15.4, "unit": "nM"},
      {"measurement": "increase in potency of Tipifarnib with a single sub-IC50 dose of FLT3 inhibitor Compound A", "setting": "MV4-11 AML cells; MV4-11, Compound A 50 nM", "value": "more than 3 fold"},
      {"measurement": "shift of EC50 for the induction of annexin V staining in combination", "setting": "MV4-11 cells", "value": "more than eight-fold"},
      {"measurement": "inhibition of tumor volume vs vehicle-treated control group", "setting": "MV4-11 tumor xenografts; Day 16, Compound D 25 mg/kg bid, Tipifarnib 50 mg/kg, alone or in combination", "value": "ineffective"},
      {"measurement": "tumor growth vs Vehicle-treated group", "setting": "MV4-11 tumor xenografts; Tipifarnib 50 mg/kg single agent, nine days", "value": "ineffective"}
    ]}
  ]
}
